Data on one compound can be found in PMC4728427, “Mechanism of allosteric activation of TMEM16A/ANO1 channels by a commonly used chloride channel blocker” (British Journal of Pharmacology, 2016).

SMILES strings stand for the structures.

Usually Ki stands for the equilibrium dissociation constant of an inhibitor or competing ligand from its target.

In experiment [1] the target is T1, Mouse TMEM16A (Mus musculus, UniProt Q8BHY3).
T1 construct: expressed in transfected cells; host or cells: HEK-293T
T1 sequence (Q8BHY3 1-960): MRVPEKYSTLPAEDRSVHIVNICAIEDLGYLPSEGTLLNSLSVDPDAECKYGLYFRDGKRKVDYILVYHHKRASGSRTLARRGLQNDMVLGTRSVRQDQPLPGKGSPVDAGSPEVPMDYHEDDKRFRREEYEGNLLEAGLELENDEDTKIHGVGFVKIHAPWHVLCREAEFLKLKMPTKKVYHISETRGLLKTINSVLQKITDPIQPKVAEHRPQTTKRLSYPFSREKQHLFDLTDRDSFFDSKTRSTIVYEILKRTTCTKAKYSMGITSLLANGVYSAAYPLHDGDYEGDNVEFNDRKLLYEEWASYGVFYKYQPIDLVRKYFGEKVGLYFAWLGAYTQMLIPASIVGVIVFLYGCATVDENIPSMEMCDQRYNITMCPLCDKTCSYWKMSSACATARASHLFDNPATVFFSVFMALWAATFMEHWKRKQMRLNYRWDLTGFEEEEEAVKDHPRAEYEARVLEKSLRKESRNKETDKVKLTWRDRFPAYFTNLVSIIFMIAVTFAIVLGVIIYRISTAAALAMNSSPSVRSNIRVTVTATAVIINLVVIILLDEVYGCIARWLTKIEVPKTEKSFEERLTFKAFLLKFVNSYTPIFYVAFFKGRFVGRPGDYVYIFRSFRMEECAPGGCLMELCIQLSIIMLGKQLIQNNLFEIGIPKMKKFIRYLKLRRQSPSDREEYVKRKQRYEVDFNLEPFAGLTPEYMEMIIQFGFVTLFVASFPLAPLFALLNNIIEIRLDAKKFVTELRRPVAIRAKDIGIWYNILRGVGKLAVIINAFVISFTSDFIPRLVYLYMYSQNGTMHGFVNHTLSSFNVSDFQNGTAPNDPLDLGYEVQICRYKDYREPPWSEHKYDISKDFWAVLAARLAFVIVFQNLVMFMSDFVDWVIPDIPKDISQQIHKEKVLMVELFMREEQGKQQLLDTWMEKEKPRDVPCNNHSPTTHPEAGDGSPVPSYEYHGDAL
Kind of experiment: Steady-state activation curve (conductance versus Vm, Boltzmann fit). The format is cell-based. On the procedure:
The voltage‐dependence of TMEM16A channels was assessed by constructing conductance (G) versus V m relationships in the presence of various [Ca^2+]i. A 1 s pre‐pulse applied to different V m (from −100 to +180 mV in 40 mV increments) was followed by a 0.5 s tail pulse to −60 mV. These pulses were elicited every 2 s from a holding V m of 0 mV. Tail currents were fitted with a single exponential function and the instantaneous tail current amplitude (I tail) estimated from extrapolation of the fit to the beginning of the tail pulse. G was calculated as G = I tail/(V m − E Cl), and normalized G (G/G max) was plotted against the V m of the pre‐pulse. The G versus V m relationships were fitted with the Boltzmann equation of the following form: (5) G/Gmax=1/1+expzgV0.5−VF/RT,
where z g is the number of gating charges moving through the applied transmembrane electric field during channel activation, and V 0.5 is the voltage at which the G is half‐maximal and depends on the conformational energy required for the channel to open.
To examine the possible effects of A9C on TMEM16A channel [Ca^2+]i‐sensitivity, the conductance versus V m relationships were assessed at various [Ca^2+]i in the absence or presence of various [A9C]ext (Figure 10 and Table 3). In the absence of extracellular A9C, V 0.5 (derived from fit with Equation (5)) shifted progressively to lower values as the [Ca^2+]i was increased from 300 to 1000 nM (Table 3). Extracellular A9C dramatically shifted the steady‐state activation curves to the left (Figure 10 and Table 3) to a similar extent for all [Ca^2+]i tested.

Experiment [2] has as its target human TMEM16A. Further details: method as in Bradley et al. (2014). Conditions: +80 mV, ref Bradley et al. (2014); cited from earlier work.
[3] abbreviates: ~300 nM [Ca2+]i, 300 μM [A9C]ext.
The mark [4] stands for this setting: ~300 nM [Ca2+]i, 1000 μM [A9C]ext.
The mark [5] stands for this setting: ~600 nM [Ca2+]i, 300 μM [A9C]ext.
[6] abbreviates: ~600 nM [Ca2+]i, 1000 μM [A9C]ext.
[7] abbreviates: ~1000 nM [Ca2+]i, 300 μM [A9C]ext.
Setting [8] is: ~1000 nM [Ca2+]i, 1000 μM [A9C]ext.

As to `O=C(O)c1c2ccccc2cc2ccccc12` [A9C, Anthracene‐9‐carboxylic acid], the “V 0.5 (Boltzmann fit)” value is given as 124 ± 9 (n = 8) mV in experiment [1] (setting [3]); 89 ± 7 (n = 14) mV in experiment [1] (setting [4]); 45 ± 4 (n = 8) mV in experiment [1] (setting [5]); 18 ± 4 (n = 14) mV in experiment [1] (setting [6]); −15 ± 8 (n = 5) mV in experiment [1] (setting [7]); −22 ± 6 (n = 9) mV in experiment [1] (setting [8]). In addition, the “z g (Boltzmann fit)” value in experiment [1] (setting [3]) is given as 0.7 ± 0.1 (n = 8); in experiment [1] (setting [4]) it was 0.7 ± 0.1 (n = 14); in experiment [1] (setting [5]) it was 0.7 ± 0.1 (n = 8); in experiment [1] (setting [6]), 0.7 ± 0.1 (n = 14); in experiment [1] (setting [7]) it was 0.9 ± 0.1 (n = 5); in experiment [1] (setting [8]), 0.9 ± 0.1 (n = 9). The Ki in experiment [2] is ~60 µM.
